Measured values from patent publication US20050288371A1, “Treatment of neuropathic pain, fibromyalgia or rheumatoid arthritis” (H. Lundbeck A/S, priority 2004, published 2005).

Legend:
[1] = background statement on known drugs; cited from earlier work
[2] = formalin pain model; format: in vivo; conditions: s.c. test drug 30 min or 2 h before the test
Description: The formalin pain model is a well-established animal model of persistent somatic pain (Dubuisson, D. and Dennis, S. G. Pain 4, 1977, 161-174). It has been described as a model of clinical inflammatory pain (Tjølsen, A. and Hole, K, In: Dickenson, A. H. and Besson, J.-M. R., Editors, 1997, The Pharmacology of Pain, Springer-Verlag, Berlin, 1-20). Formalin injected subcutaneously in a hind paw produces initially a local stimulation of the nociceptors; this is referred to as phase 1. This is followed by inflammatory processes and nerve sensitization (phase 2). The latter phase models the neuropathic pain condition. A number of drugs are active in the model, e.g. morphine and in particular antiepileptic drugs (e.g. gabapentin, lamotrigine, carbamazepine) that have shown beneficial effects in clinical neuropathic states. However, these treatments are accompanied by troublesome side effects. The non-steroid antiinflammatory drugs (NSAIDs) that are used for treatment of inflammatory processes in tissue and have relatively weak effects on neuropathic pain conditions have weak activity in the formalin model.
Fifty microliters of 2.5% formalin were administered subcutaneously (s.c.) into the plantar region of the right hind-paw. […] The total time the animal spent licking, biting or shaking the injected paw was recorded. […]

NC(=O)N1c2ccccc2C=Cc2ccccc21 [carbamazepine]
activity in the formalin model [1]: active

NCC1(CC(=O)O)CCCCC1 [gabapentin]
activity in the formalin model [1]: active

Oc1noc2c1CCNC2 [gaboxadol]
inhibition of the pain response in phase 1 ([2]; phase 1 (0-5 min after formalin injection)): potent and dose dependent inhibition of the pain response in phase 1
inhibition of the pain response in phase 2 ([2]; phase 2 (20-30 min after formalin injection)): potently inhibited the pain response in phase 2, in a dose dependent manner

Nc1nnc(-c2cccc(Cl)c2Cl)c(N)n1 [lamotrigine]
activity in the formalin model [1]: active

CN1CC[C@]23c4c5ccc(O)c4O[C@H]2[C@@H](O)C=C[C@H]3[C@H]1C5 [morphine]
activity in the formalin model [1]: active
